Data set [1] in a line: in vivo. The conditions noted are these: rat, plasma, ip, 20 mg/kg.
A short description of data set [2]: in vivo. The conditions noted are these: rat, plasma, ip, 20 mg/kg. This is another data set of the same source.
A short description of data set [3]: in vivo. As to conditions: rat, plasma, ip, 20 mg/kg. This is another data set of the same source.
The nature of data set [4]: in vivo. The conditions noted are these: rat, synovial fluid, ip, 20 mg/kg.

Drawing on ChEMBL document CHEMBL5214964 (Bioorg Med Chem Lett, 2022), this text covers concentration for 1 compound.

Structures are written as SMILES.

Compound `NCCNS(=O)(=O)c1ccc(-c2ccc(CSc3nc4c(c(=O)[nH]3)CCC4)cc2)cc1` returned a concentration at 1 h in “in vivo [1]” of 115 µM. Moreover, the concentration at 2 h in the data set “in vivo [2]” is 85 µM. The concentration at 4 h in “in vivo [3]” came out at 57 µM; in the data set “in vivo [4]”, 3.27 µM.
